The record followed here is US12357603B2, “Acyl sulfonamides for treating cancer” (Bayer Aktiengesellschaft, priority 2019, dated 2025).

Read-outs that look alike come from different tables or passages of the source.

Assay [1] deals with ZR-75-1 cells. Description: Proliferation assay ZR-75-1 (Alamar Blue, 144 h). Type of assay: cell-based. As to conditions: arithmetic mean, read-out: ZR75-1 proliferation assay, EC50 [M] (arithmetic mean). The essentials: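 Cells seeded at 3000/well in RPMI 1640 with 2.5% FBS and treated 24 h later across 2.0×10E-5 to 2.0×10E-9 M (9 dilutions, 0.2% DMSO, triplicate). After 144 h at 37 °C, 5% CO2, viability read by Alamar Blue fluorescence at 590 nm following 2 h reagent incubation.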
Background: Alamar Blue is a resazurin reagent that responds to reducing activity.

Assay [2] deals with Recombinant human His-tagged Kat6a protein (amino acids 194-810) (Homo sapiens (Human), UniProt Q92794). Kind of assay: Kat6a activity assay (TR-FRET, acetylation of biotinylated Histone-H4-derived peptide). Type of assay: biochemical. As to conditions: 60 mins at 22° C., read-out: KAT6A-DPF/HAT domain IC50 [mol/l] (arithmetic mean). The essentials: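 Sf9-expressed human His-Kat6a (aa 194-810) incubated 60 min at 22 °C with compounds (0.01-20 μM) in Tris pH 8 buffer containing 220 nM biotinylated H4 peptide (aa 1-24) and 600 nM acetyl-CoA. Acetyl-K8 detected by TR-FRET (665/620 nm ratio); IC50 by four-parameter fit versus DMSO controls.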
Sequence of Recombinant human His-tagged Kat6a protein (amino acids 194-810) (Q92794 194-810): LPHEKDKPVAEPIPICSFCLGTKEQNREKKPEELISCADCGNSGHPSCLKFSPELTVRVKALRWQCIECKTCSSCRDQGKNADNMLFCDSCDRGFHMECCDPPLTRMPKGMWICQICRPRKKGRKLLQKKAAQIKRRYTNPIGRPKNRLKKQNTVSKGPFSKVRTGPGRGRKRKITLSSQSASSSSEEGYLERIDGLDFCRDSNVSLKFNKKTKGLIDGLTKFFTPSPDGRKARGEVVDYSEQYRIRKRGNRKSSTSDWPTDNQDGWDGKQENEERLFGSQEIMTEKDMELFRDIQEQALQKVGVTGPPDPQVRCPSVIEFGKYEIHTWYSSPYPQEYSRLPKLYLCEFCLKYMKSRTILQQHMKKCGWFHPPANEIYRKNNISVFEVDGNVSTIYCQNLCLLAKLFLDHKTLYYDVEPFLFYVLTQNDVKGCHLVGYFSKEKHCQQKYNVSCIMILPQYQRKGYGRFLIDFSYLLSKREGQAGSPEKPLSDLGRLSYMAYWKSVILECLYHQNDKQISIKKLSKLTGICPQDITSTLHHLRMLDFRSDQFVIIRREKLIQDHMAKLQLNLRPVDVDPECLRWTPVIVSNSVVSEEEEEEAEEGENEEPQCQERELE
(Time-resolved FRET reads energy transfer from a long-lived donor to a nearby acceptor.)

Assay [3] has as its system ESR1 transcription (luciferase signal in MVLN cells). Kind of assay: Repression of ESR1 transcription, luciferase reporter in MVLN cells. It is filed as cell-based. As to conditions: inhibition of luciferase signal in MVLN cells, arithmetic mean. The essentials: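 MVLN cells (constitutive ER, stably carrying a Vitellogenin A2 hormone-responsive element–luciferase reporter) treated in duplicate; luciferase read after 24 h. Cell density checked by Alamar Blue fluorescence (530/590 nm) after 2 h to exclude cell-loss effects.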
A general note: In a reporter assay the amount or activity of a reporter protein is the signal.

Assay [4] deals with MDA-MB-436 cells. Kind of assay: Proliferation assay MDA-MB-436, negative control cell line (Alamar Blue, 144 h). Type of assay: cell-based. The note with it: arithmetic mean. From the text:
Proliferation Assays for Compound Characterization
For compound characterization cell survival assays were routinely run in two cell lines. ZR-75-1 is a breast carcinoma cell line containing a focal KAT6A amplification and high KAT6A protein expression. Proliferation of this cell line is inhibited upon treatment with KAT6A inhibitors. As a negative control cell line MDA-MB-436 were used. These cells carry a […] deletion of the KAT6A gene, have a low KAT6A protein expression and are not growth inhibited upon treatment with KAT6A inhibitors.
For measurements cell lines were plated at the below indicated concentration per […] in 96-well plates in a humidified incubator at 37° C. and 5% CO2.
MDA-MB-436 (CLS, 300278; breast adenocarcinoma); 3000 cells per well; culture medium: DMEM/Ham's F12 (Biochrom #FG 4815) medium containing 2.5% FBS (Biochrom #S0615).
24 hours later, cells were treated with compounds (stock solution, 10 mM in DMSO) using the HP D300 Digital Dispenser in a concentration range of 2.0×10E-5 M to 2.0×10E-9 M in a single-dot curve with 9 dilutions and a DMSO concentration of 0.2%. Each sample was prepared as triplicate and rim wells were excluded. Plates were incubated at 37° C. and 5% CO2 for 144 h. Cell viability was measured by adding 10 μL of Alamar Blue Reagent (Invitrogen #DAL 1100) and plates were incubated for 2 h at 37° C. and 5% CO2. Fluorescence was measured at 590 nm wavelength with a Tecan Spark or Victor X3 MTP-Reader (PerkinElmer).

Setting [5] is: Homo sapiens, MDA-MB-436, 144 h.

Turning to `CCOc1nccc(C(F)(F)F)c1S(=O)(=O)NC(=O)c1cc2ccc(N(C)C)cc2o1` [Example 120, 6-(Dimethylamino)-N-[2-ethoxy-4-(trifluoromethyl)pyridine-3-sulfonyl]-1-benzofuran-2-carboxamide], the EC50 in assay [1] (Homo sapiens, ZR-75-1, 144 h) is 4.57e-07 M; in assay [4] (setting [5]) it was over 20 µM. In addition, the IC50 in assay [2] came to 1.85 µM; in assay [3] (Homo sapiens, MVLN), 0.891 µM.

In the case of `Cc1cccc(Nc2ccncc2S(=O)(=O)NC(=O)c2cc3ccc(N(C)C)cc3o2)c1` [Example 151, 6-(Dimethylamino)-N-[4-(3-methylanilino)pyridine-3-sulfonyl]-1-benzofuran-2-carboxamide], the EC50 in assay [1] (Homo sapiens, ZR-75-1, 144 h) is 2.87e-06 M; in assay [4] (setting [5]) it was over 20 µM. Moreover, the IC50 in assay [2] was found to be 0.234 µM; in assay [3] (Homo sapiens, MVLN), 9.85 µM.

Turning to `CCOc1ccccc1S(=O)(=O)NC(=O)c1cc2cc(Cl)c(N(C)C)cc2o1` [Example 188, 5-Chloro-6-(dimethylamino)-N-((2-ethoxyphenyl)sulfonyl)benzofuran-2-carboxamide], the EC50 was over 2e-05 M in assay [1] (Homo sapiens, ZR-75-1, 144 h) and over 20 µM in assay [4] (setting [5]). For the same molecule, the IC50 is 10.3 µM in assay [2] and over 20 µM in assay [3] (Homo sapiens, MVLN).

For the molecule `CN(C)c1ccc2cc(C(=O)NS(=O)(=O)c3cc(Br)cnc3Cl)oc2c1` [Example 136], the EC50 in assay [1] (Homo sapiens, ZR-75-1, 144 h) is 5.54e-06 M; in assay [4] (setting [5]), over 20 µM. The IC50 in assay [2] amounted to 0.796 µM; in assay [3] (Homo sapiens, MVLN), 15.4 µM.

Turning to `CCOc1ccc(C(F)(F)F)cc1S(=O)(=O)NC(=O)c1cc2ccc(N(C)C)cc2o1` [Example 172, 6-(Dimethylamino)-N-[2-ethoxy-5-(trifluoromethyl)phenyl]sulfonyl-benzofuran-2-carboxamide], the EC50 was 8.08e-08 M in assay [1] (Homo sapiens, ZR-75-1, 144 h) and over 20 µM in assay [4] (setting [5]). The IC50 worked out at 0.054 µM in assay [2] and 0.0723 µM in assay [3] (Homo sapiens, MVLN).

Turning to `CCc1ccc(Cn2cccn2)cc1S(=O)(=O)NC(=O)c1cc2ccc(N(C)C)cc2o1` [Example 102, 6-(Dimethylamino)-N-{2-ethyl-5-[(1H-pyrazol-1-yl)methyl]benzene-1-sulfonyl}-1-benzofuran-2-carboxamide], the EC50 is 1.95e-06 M in assay [1] (Homo sapiens, ZR-75-1, 144 h) and over 20 µM in assay [4] (setting [5]). In addition, the IC50 in assay [2] was 0.489 µM; in assay [3] (Homo sapiens, MVLN) it was 1.47 µM.

As for `Cc1cccnc1CS(=O)(=O)NC(=O)c1cc2ccc(N(C)C)cc2o1` [Example 105, 6-(Dimethylamino)-N-[(3-methylpyridin-2-yl)methanesulfonyl]-1-benzofuran-2-carboxamide], the EC50 in assay [1] (Homo sapiens, ZR-75-1, 144 h) was 3.72e-06 M; in assay [4] (setting [5]), over 20 µM. The IC50 is 1.96 µM in assay [2] and 11.6 µM in assay [3] (Homo sapiens, MVLN).

On to `COCCN(C)c1ccc2cc(C(=O)NS(=O)(=O)c3ccc(C)cc3-c3ccccc3)oc2c1` [Example 214, 6-[(2-Methoxyethyl)(methyl)amino]-N-(5-methyl[1,1′-biphenyl]-2-sulfonyl)-1-benzofuran-2-carboxamide], for which the EC50 was 6.14e-06 M in assay [1] (Homo sapiens, ZR-75-1, 144 h) and over 20 µM in assay [4] (setting [5]). The IC50 turned out to be 0.732 µM in assay [2] and 5.53 µM in assay [3] (Homo sapiens, MVLN).

For the molecule `CN(C)c1cc2oc(C(=O)NS(=O)(=O)c3ccccc3OC3CC3)cc2cc1Br` [Example 207, 5-Bromo-N-[2-(cyclopropyloxy)benzene-1-sulfonyl]-6-(dimethylamino)-1-benzofuran-2-carboxamide], the EC50 was over 2e-05 M in assay [1] (Homo sapiens, ZR-75-1, 144 h) and over 20 µM in assay [4] (setting [5]). Moreover, the IC50 was determined as 6.81 µM in assay [2] and 11.8 µM in assay [3] (Homo sapiens, MVLN).

As for `Cc1ccc2cccc(S(=O)(=O)NC(=O)c3cc4c(F)cc(N(C)C)cc4o3)c2n1` [Example 108, 6-(Dimethylamino)-4-fluoro-N-(2-methylquinoline-8-sulfonyl)-1-benzofuran-2-carboxamide], the EC50 in assay [1] (Homo sapiens, ZR-75-1, 144 h) was 8.07e-08 M; in assay [4] (setting [5]), over 18.6 µM. The IC50 worked out at 0.0046 µM in assay [2] and 0.0091 µM in assay [3] (Homo sapiens, MVLN).

`CCOc1ccccc1S(=O)(=O)NC(=O)c1cc2cc(F)c(N(C)C)cc2o1` [Example 198, 6-(Dimethylamino)-N-((2-ethoxyphenyl)sulfonyl)-5-fluorobenzofuran-2-carboxamide]: the EC50 in assay [1] (Homo sapiens, ZR-75-1, 144 h) is 7.2e-06 M; in assay [4] (setting [5]) it was over 20 µM. The IC50 in assay [2] turned out to be 4.06 µM; in assay [3] (Homo sapiens, MVLN), 2.32 µM.

`Cc1ccc2cccc(S(=O)(=O)NC(=O)c3cc4c(F)cc(N(C)C)cc4o3)c2n1` [Example 227]: the EC50 in assay [1] was 6.85e-08 M; in assay [4], over 14.9 µM. The IC50 in assay [2] was determined as 0.004 µM; in assay [3], 0.014 µM.

Consider `CCCCOc1ccccc1S(=O)(=O)NC(=O)c1cc2ccc(N(C)CCOC)cc2o1` [Example 219, N-(2-butoxybenzene-1-sulfonyl)-6-[(2-methoxyethyl)(methyl)amino]-1-benzofuran-2-carboxamide], for which the EC50 in assay [1] (Homo sapiens, ZR-75-1, 144 h) is 6.05e-06 M; in assay [4] (setting [5]), over 20 µM. Besides, the IC50 came out at 1.28 µM in assay [2] and 4.06 µM in assay [3] (Homo sapiens, MVLN).

Consider `COc1ccc(S(=O)(=O)NC(=O)c2cc3ccc(N(C)C)cc3o2)cn1` [Example 152, 6-(Dimethylamino)-N-(6-methoxypyridine-3-sulfonyl)-1-benzofuran-2-carboxamide], for which the EC50 in assay [1] (Homo sapiens, ZR-75-1, 144 h) was 2.16e-06 M; in assay [4] (setting [5]) it was over 20 µM. For the same molecule, the IC50 in assay [2] amounted to 1.4 µM; in assay [3] (Homo sapiens, MVLN), 2.93 µM.

Take `Cc1ccc2cccc(S(=O)(=O)NC(=O)c3cc4cc(F)c(N(C)C)cc4o3)c2n1` [Example 197, 6-(Dimethylamino)-5-fluoro-N-((2-methylquinolin-8-yl)sulfonyl)benzofuran-2-carboxamide]: the EC50 in assay [1] (Homo sapiens, ZR-75-1, 144 h) was 2.84e-06 M; in assay [4] (setting [5]), over 20 µM. Moreover, the IC50 came out at 0.894 µM in assay [2] and 1.27 µM in assay [3] (Homo sapiens, MVLN).

Consider `CN(C)c1cc2oc(C(=O)NS(=O)(=O)c3ccccc3-c3ccccc3)cc2cc1Cl` [Example 189, N-([1,1′-biphenyl]-2-ylsulfonyl)-5-chloro-6-(dimethylamino)benzofuran-2-carboxamide], for which the EC50 in assay [1] (Homo sapiens, ZR-75-1, 144 h) is over 2e-05 M; in assay [4] (setting [5]), over 20 µM. In addition, the IC50 in assay [2] was found to be 2.44 µM; in assay [3] (Homo sapiens, MVLN), 6.48 µM.

In the case of `CCOc1ccc(F)cc1S(=O)(=O)NC(=O)c1cc2ccc(N(C)C)cc2o1` [Example 173, 6-(Dimethylamino)-N-(2-ethoxy-5-fluoro-phenyl)sulfonyl-benzofuran-2-carboxamide], the EC50 in assay [1] (Homo sapiens, ZR-75-1, 144 h) is 1.1e-07 M; in assay [4] (setting [5]), over 20 µM. Besides, the IC50 in assay [2] was 0.0973 µM; in assay [3] (Homo sapiens, MVLN) it was 0.0674 µM.

As to `CCOc1ccccc1S(=O)(=O)NC(=O)c1cc2ccc(N(C)C)c(F)c2o1` [Example 191, 6-(Dimethylamino)-N-((2-ethoxyphenyl)sulfonyl)-7-fluorobenzofuran-2-carboxamide], the EC50 in assay [1] (Homo sapiens, ZR-75-1, 144 h) is 5.64e-06 M; in assay [4] (setting [5]) it was over 20 µM. For the same molecule, the IC50 in assay [2] was 4.7 µM; in assay [3] (Homo sapiens, MVLN) it was 11.2 µM.

Take `CCCOc1cccc(C)c1S(=O)(=O)NC(=O)c1cc2ccc(N(C)C)cc2o1` [Example 133, 6-(Dimethylamino)-N-(2-methyl-6-propoxybenzene-1-sulfonyl)-1-benzofuran-2-carboxamide]: the EC50 in assay [1] (Homo sapiens, ZR-75-1, 144 h) was 4.88e-07 M; in assay [4] (setting [5]), over 20 µM. Also, the IC50 came to 0.325 µM in assay [2] and 0.323 µM in assay [3] (Homo sapiens, MVLN).

For `CC(C)c1ccc(OCc2ccccc2)c(S(=O)(=O)NC(=O)c2cc3ccc(N(C)C)cc3o2)c1` [Example 176, N-(2-Benzyloxy-5-isopropyl-phenyl)sulfonyl-6-(dimethylamino)benzofuran-2-carboxamide], the EC50 in assay [1] (Homo sapiens, ZR-75-1, 144 h) is 9.71e-08 M; in assay [4] (setting [5]), 19.5 µM. The IC50 in assay [2] came out at 0.0128 µM; in assay [3] (Homo sapiens, MVLN), 0.0348 µM.

In the case of `CCNc1ccc2cc(C(=O)NS(=O)(=O)c3ccccc3OCC)oc2c1` [Example 212, N-(2-Ethoxybenzene-1-sulfonyl)-6-(ethylamino)-1-benzofuran-2-carboxamide], the EC50 in assay [1] (Homo sapiens, ZR-75-1, 144 h) is 4.19e-06 M; in assay [4] (setting [5]), over 20 µM. Moreover, the IC50 was found to be 1.13 µM in assay [2] and 9.28 µM in assay [3] (Homo sapiens, MVLN).
